Results taken from patent publication US20080187572A1, “Matrix Metalloproteinase Inhibitors of Tgfb-Induced Subcapsular Cataract Formation” (McMaster University, priority 2005, published 2008).
“Also recorded” adds a separate entry of the source.

Columns and labels:
[1] = system: TGFβ-induced rat lens cataract; experiment: Optical analysis (BVD error) in ex-vivo TGFβ-induced rat lens cataract model
MMP-9 = experiment: Western blot of conditioned media for MMP-9 with densitometry; format: cell-based, rat; conditions: for MMP-9 protein in conditioned media (western blot, densitometry), FIG. 5B,C: co-treated with TGFβ 2 ng/ml, compared with TGFβ alone
Protocol: Equal volumes of sample were electrophoresed on a 10% SDS-polyacrylamide gel. The resolved bands were electro-transferred onto a nitrocellulose membrane (Pall Corporation). Membranes were blocked with 5% skimmed milk powder in Tris-buffered saline (50 mM Tris base, NaCl pH 8.5) and 0.1% Tween-20 and then incubated overnight at 4° C. with a polyclonal antibody generated against MMP-9 (1:500; Chemicon International) or MMP-2 (1:500:Chemicon International) or E-adherin (1:1500; ED Transduction Laboratories).
(§1) Following this incubation, membranes were probed with an HRP-conjugated secondary antibody (1:7500;Amersham Biosciences) and ECL detection reagents (Amersham Biosciences). The western blots were scanned by a densitometer and analyzed by image quantification software (ImageJ, NIH, USA). The relative density versus control ratio (RD/C) was estimated using Graph Pad Prism Program (GraphPad). Quantitative data were analyzed statistically using a student's t-test and expressed as ± standard deviation. A value of p<0.05 was considered significant.
The western blot data for MMP-9 from three separate experiments were analyzed by densitometry and the results are shown in FIG. 5C. Values are expressed as the Relative Density versus control ratio (RD/C)± standard deviation of 3 blots.

[2] = system: alpha smooth muscle actin (α-SMA); experiment: Immunofluorescent localization of αSMA in lens cross-sections; format: cell-based, rat; conditions: co-cultured with TGFβ 2 ng/ml, 6 days
Protocol: Lenses were collected from different treatment groups and fixed overnight in 1:99 acetic acid: ethanol solution, dehydrated, embedded in paraffin, and processed for routine histology. For histological analysis, 5 μm sections were stained with hematoxylin and eosin. Immunofluorescence was performed on 5 μm thick paraffin-embedded sections. Sections were incubated with primary antibody specific for alpha smooth muscle actin (α-SMA, 1:100, Sigma) and bound primary antibodies were visualized with a fluorescein-isothiocyanate (FITC) anti-mouse secondary antibody, (1:50, Jackson ImmunoResearch Laboratories). All sections were mounted in Vectasheild mounting medium with 4′,6-Diaminodino-2-Phenylindol (DAPI, Vector Laboratories) to visualize the nuclei.
To carry out these experiments, excised rat lenses were treated with exogenous TGFβ for a period of 6 days. An untreated control lens (A), a lens treated with TGF-β (2 ng/mL) (B), a lens co-cultured with TGFβ (2 ng/mL) and GM6001 (25 μM) (C) and a lens co-cultured with TGF-β and MMPI-2/9 (2 umol/L) (D) are shown following 6 days of culture.

[3] = system: TGFβ-induced subcapsular cataract formation; experiment: Subcapsular plaque/opacity formation in cultured rat lenses (photography); format: cell-based; conditions: 6 days
Protocol: The previously established TGFβ-induced rat lens model was utilized for these studies. Briefly, lenses were obtained from adult male Wistar rats and cultured in 3.5 ml of serum free M199 medium supplemented with 50 IU/ml penicillin, 50 μg/ml streptomycin and 2.5 μg/ml fungizone (Amersham Biosciences) overnight. […] Some lenses were co-treated with TGFβ2 and the […], GM6001 (liomastat) (Chemicon International) at concentrations ranging from 10 to 25 μM or the MMP-2-9 inhibitor ((2R)-[(4-Biphenylylsulfonyl)amino]-N-hydroxyl-3-phenylpropionamide) (Chemicon) concentrations of either 10 and 25 μM. The GM6001 negative control (N-t-Butoxycarbonyl-L-leucyl-L-tryptophan Methylamide) (Calbiochem) (25 μM) was also employed. Lenses were then harvested at subsequent time-points of 2, 4 or 6 days and then photographed using a digital camera mounted to a dissecting scope. The lenses were then fixed for histology and immunofluorescence, or used for optical analysis. The conditioned media was also collected from each treatment group for zymography and western blot analysis.
The MMP inhibitor GM6001 was employed in the rat subcapsular cataract model in order to determine whether it could effectively suppress TGFβ-induced subcapsular cataract formation. To carry out these experiments, excised rat lenses were treated with exogenous TGFβ for a period of 6 days. […]

E-cadherin mRNA = E-cadherin mRNA in lens epithelium by LCM and RT-QPCR; format: cell-based, rat; conditions: 6 day treatment; for E-cadherin mRNA level in lens epithelium versus TGFβ alone, FIG. 6B / E-cadherin mRNA level in lens epithelium versus controls, FIG. 6B: co-treated with TGFβ
Protocol: E-cadherin mRNA expression in the rat lens epithelial region was determined for lenses from different treatment groups, TGF-β, TGF-β plus GM6001 (25 μM), TGF-β plus MMPI-2/9 or control (6 day treatment time), using Real time quantitative PCR, (RT-QPCR). For these experiments, cryostat sections of lenses were subjected to Laser Capture Microdissection (LCM) in order to specifically isolate the cells. LCM was used to further ensure that cells of the subcapsular plaques were obtained and not left adherent to the underlying fiber cell mass, which may have occurred with manual dissection. Following treatment, lenses were placed in a cryostat mould containing Tissue-Tek OCT (Sakura Finetek Torrance, Calif.), and frozen on dry ice then stored at −70° C. The frozen tissue was then sectioned at 5-8 μm in a cryostat, mounted on non-coated clean glass slides, and stored again at −70° C. Immediately before Laser Capture Microdissection (LCM), the frozen sections were thawed for 10 seconds and then stained with HistoGene™LCM Frozen Section Staining kit (Arcturus, Mountain View, Calif.) using the protocol provided with strict adherence to RNAse-free conditions. The slides were then dried for 5 minutes after which LCM of the tissue was completed within two hours. LCM was then performed using the PixCell II (Arcturus), as described by others. The HistoGene stain allowed for the identification of the general morphology of the epithelium. Cells from the epithelium of the lens were then captured on CapSure Macro LCM Caps (Arcturus) using the PixCell II LCM Microscope (Arcturus) with a minimal beam diameter of 7.5 μrm. Total cellular RNA was then extracted from lifted cells using a PicoPure™ RNA Isolation kit (Arcturus Engineering Inc). Purified RNA was analyzed both qualitatively and quantitatively using an Agilent 2100 Bioanalyser (Agilent Technologies, Foster City, Calif., USA). Standard 20 μl reverse transcription reactions were preformed (SuperScript II, Life Technologies). The quality of the recovered cDNA was measured using a microfluidic gel analyzer (Agilent Technologies). E-Cadherin gene expression from recovered cDNA was analyzed using RT-PCR using a 96 well TaqMan optical reaction plate format on an ABI Prism 7700 sequence detection system (Applied Biosystems, Foster City, Calif., USA). RNA was normalized to 18S for each reaction. Each 25 μl PCR reaction (including controls) contained TaqMan Universal master mix, gene-specific forward and reverse primers (Mobix, Hamilton), and probes for target and endogenous control genes (Applied Biosystems). Serial dilutions (1-5 fold) of standard samples were set up in separate wells in duplicate, for both 18S and E-cadherin gene targets. Standard and unknown samples were added in a volume of 5 μl. Thermal cycling parameters consisted of the following: 2 minutes at 50° C., 10 minutes at 95° C. followed by 40 cycles of 15 seconds at 95° C. and 1 minute at 60° C. The number of target gene copies was calculated from a standard curve generated in parallel with each batch of samples. A linear relationship was detected over at least five orders of magnitude. In all experiments, the correlation coefficient was between 0.997 and 0.986. […] All PCR for E-cadherin cDNA quantification were performed using standard cDNA dilution curves. Quantitative data were analyzed statistically using a student's t-test and expressed as ±standard deviation. […]

E-cadherin fragment = experiment: E-cadherin shedding, western blot of conditioned media; format: cell-based, rat; conditions: co-cultured with TGFβ, 6 day treatment
Protocol: (§2) To confirm the identity of the specific MMPs corresponding to the gelatinolytic bands in the zymograms and quantitate their levels over the 6 day time period, concentrated conditioned media from the treatment groups, control, TGFβ, TGFβ plus GM6001 (25 μM) and TGFβ plus MMPI-2/9, from three treatment times days 2, 4 and […], was subjected to western blot analysis using antibodies specific for both MMP-2 and MMP-9. Equal volumes of sample were electrophoresed on a 10% SDS-polyacrylamide gel. The resolved bands were electro-transferred onto a nitrocellulose membrane (Pall Corporation). Membranes were blocked with 5% skimmed milk powder in Tris-buffered saline (50 mM Tris base, NaCl pH 8.5) and 0.1% Tween-20 and then incubated overnight at 4° C. with a polyclonal antibody generated against MMP-9 (1:500; Chemicon International) or MMP-2 (1:500:Chemicon International) or E-adherin (1:1500; ED Transduction Laboratories).
To determine whether TGFβ treatment of the rat lens results in an induction of E-cadherin shedding and whether this can be modulated by MMPIs, previously concentrated conditioned media was obtained from the 6 day treatment groups outlined earlier, and subjected to western blot analyses using an antibody specific for extracellular domain of E-cadherin, and used in previous studies to detect the presence of soluble E-cadherin fragments. […]

MMP-2 = experiment: Western blot of conditioned media for MMP-2; format: cell-based, rat; conditions: co-cultured with TGFβ
Protocol: as §2
as §1, with “The relative density versus control ratio (RD/C) was estimated using Graph Pad Prism Program (GraphPad).” left out, “A value of p<0.05 was considered significant.” left out

[4] = system: MMPs with gelatinolytic activity (MMP-2, MMP-9); experiment: Gelatin zymography of lens conditioned media; format: cell-based, rat; conditions: co-treated with TGFβ, 6 day time point, relative to TGFβ treated lenses
Protocol: An equal volume of each concentrate was electrophoresed on 10% SDS-polyacrylamide gels containing either 1 mg/ml gelatin or 2% beta-casein at a final concentration of 0.1% as the substrate. Following electrophoresis the gels were developed as described previously and stained in 0.5% coomassie brilliant blue for 1 hr followed by destaining with 10% iso-propanol. Sites of gelatinase or caseinase activity were detected as clear bands against a background of uniform staining, which was digitally photographed.
To examine the timing and level of induction of MMPs In subcapsular cataract formation zymography was performed on conditioned media of lenses from three different treatment groups (control, TGFβ, TGFβ plus GM6001 (25 μM)) and TGFβ plus MMPI-2/9 at the 6 day time point.

[5] = TGFβ 2 ng/ml plus 25 μM test substance, 6 days

## CNC(=O)[C@H](Cc1c[nH]c2ccccc12)NC(=O)[C@@H](CC(=O)NO)CC(C)C [GM6001]
[1]; TGFβ 2 ng/ml plus 10 μM test substance, 6 days
  BVD error versus control lenses, FIG. 3: significantly different from control lenses
[1]; TGFβ 2 ng/ml plus 15 μM test substance, 6 days
  BVD error versus control lenses, FIG. 3: significantly different from control lenses
[1]; TGFβ 2 ng/ml plus 20 μM test substance, 6 days
  BVD error versus control lenses, FIG. 3: not significantly different from the control lenses
[1]; [5]
  BVD error versus control lenses, FIG. 3: not significantly different from the control lenses
[1]; TGFβ 2 ng/ml plus 10, 15, 20, 25 μM, 6 days
  Dosage effect on TGFβ-induced BVD error: decrease in BVD error as the GM6001 concentration increases to 25 μM
[1]; day 6, lenses co-treated with TGF-β and GM6001, compared with TGF-β treated groups
  BVD error (back vertex variability), FIG. 2: both the TGF-β treated groups of lenses exhibited a significantly larger BVD error than the control group or the GM6001 co-treated lenses
MMP-9
  MMP-9 protein in conditioned media (western blot, densitometry), FIG. 5B,C: significant reduction (**P<0.001); also recorded: significantly attenuated
[2]; 25 μM
  αSMA immunoreactivity in lens sections, FIG. 4: no observable immunoreactivity to αSMA
[3]; co-cultured with TGFβ 2 ng/mL, 25 μM
  Subcapsular plaques / opacities, FIG. 4: remained devoid of opacities
E-cadherin mRNA
  E-cadherin mRNA level in lens epithelium versus TGFβ alone, FIG. 6B: significantly higher than those treated with TGFβ alone
  E-cadherin mRNA level in lens epithelium versus controls, FIG. 6B: significantly higher than that of controls
E-cadherin fragment
  E-cadherin fragment in conditioned media, FIG. 6A: Suppression in the levels of the E-adherin fragment
MMP-2
  MMP-2 protein in conditioned media (western blot), FIG. 5B: undetectable levels, similar to controls
[4]
  Levels of gelatinolytic bands in conditioned media, FIG. 5A: reduced levels of all gelationolytic bands

## O=C(NO)[C@@H](Cc1ccccc1)NS(=O)(=O)c1ccc(-c2ccccc2)cc1 [MMPI-2/9, (2R)-[(4-Biphenylylsulfonyl)amino]-N-hydroxyl-3-phenylpropionamide]
MMP-9
  MMP-9 protein in conditioned media (western blot, densitometry), FIG. 5B,C: significant attenuation of MMP-9
[2]; inhibitor
  αSMA immunoreactivity in lens sections, FIG. 4: no observable immunoreactivity to αSMA
[3]; co-cultured with TGF-β
  Subcapsular plaques / opacities, FIG. 4: remained devoid of opacities
E-cadherin mRNA
  E-cadherin mRNA level in lens epithelium versus TGFβ alone, FIG. 6B: significantly higher than those treated with TGFβ alone
  E-cadherin mRNA level in lens epithelium versus controls, FIG. 6B: significantly higher than that of controls
E-cadherin fragment
  E-cadherin fragment in conditioned media, FIG. 6A: undetectable
MMP-2
  MMP-2 protein in conditioned media (western blot), FIG. 5B: undetectable levels, similar to controls
[4]
  Levels of gelatinolytic bands in conditioned media, FIG. 5A: reduced levels of all gelationolytic bands

## CNC(=O)[C@H](Cc1c[nH]c2ccccc12)NC(=O)[C@H](CC(C)C)NC(=O)OC(C)(C)C [negative control for GM6001, N-t-Butoxycarbonyl-L-leucyl-L-tryptophan Methylamide]
[1]; [5]
  BVD error versus control lenses, FIG. 3: significantly different from the controls

B1: TGFβ: TGFβ2 (R&D Systems), growth factor used to induce subcapsular cataract in cultured rat lenses (protein, UniProt P61812 303-414, looked up)
Transforming growth factor …: ALDAAYCFRNVQDNCCLRPLYIDFKRDLGWKWIHEPKGYNANFCAGACPYLWSSDTQHSRVLSLYNTINPEASASPCCVSQDLEPLTILYYIGKTPKIEQLSNMIVKSCKCS
[1]; TGFβ alone, 6 days
  BVD error versus controls: statistically greater than in controls
MMP-9; TGFβ 2 ng/ml alone
  MMP-9 in conditioned media versus control, FIG. 5C: significant upregulation (*P<0.001)
E-cadherin mRNA; TGFβ alone
  Suppression of E-cadherin mRNA in plaque tissue versus normal lens epithelium: ~4 fold
